Source: PubChem BioAssay (NCI)
Values joined by “and” are separate entries in the source; they are usually repeats but may differ in a detail not shown here. Equal entries are not always repeated.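 Each compound was tested at five concentrations against cells in 96-well plates for 48 hours. GI50: concentration for 50% inhibition of growth. TGI: concentration producing complete growth inhibition.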

Key:
Test in all cases: NCI tumour cell line growth inhibition, 48 h
NCI-H226 lung = system: NCI-H226 lung
A549 NSCLC = system: A549 NSCLC
MALME-3M melanoma = system: MALME-3M melanoma
OVCAR-3 ovarian = system: OVCAR-3 ovarian
SR leukemia = system: SR leukemia
HT29 colon = system: HT29 colon
IGROV1 ovarian = system: IGROV1 ovarian
UACC-62 melanoma = system: UACC-62 melanoma
OVCAR-4 ovarian = system: OVCAR-4 ovarian
HCT-116 colon = system: HCT-116 colon

Nc1[nH]nc2nc(-c3cccs3)cc(C(F)(F)F)c12
GI50 (NCI-H226 lung): > 23.2 µM | TGI (NCI-H226 lung): > 25 µM | GI50 (A549 NSCLC): 24.3 µM | TGI (A549 NSCLC): > 25 µM | GI50 (MALME-3M melanoma): > 25 µM | TGI (MALME-3M melanoma): > 25 µM | GI50 (OVCAR-3 ovarian): > 25 µM | TGI (OVCAR-3 ovarian): > 25 µM | GI50 (SR leukemia): > 13.7 µM | TGI (SR leukemia): > 25 µM | GI50 (HT29 colon): > 25 µM | TGI (HT29 colon): > 25 µM | GI50 (IGROV1 ovarian): > 25 µM | TGI (IGROV1 ovarian): > 25 µM | GI50 (UACC-62 melanoma): > 25 µM | TGI (UACC-62 melanoma): > 25 µM | GI50 (OVCAR-4 ovarian): > 25 µM | TGI (OVCAR-4 ovarian): > 25 µM | GI50 (HCT-116 colon): > 17.9 µM | TGI (HCT-116 colon): > 25 µM

O=C(Nc1ccc(Cl)cc1)Nc1ccc(Nc2nncc3ccccc23)cc1
GI50 (NCI-H226 lung): 2.46 µM | TGI (NCI-H226 lung): 12.5 µM | GI50 (A549 NSCLC): 3.03 µM | TGI (A549 NSCLC): 19.3 µM | GI50 (MALME-3M melanoma): 3.94 µM | TGI (MALME-3M melanoma): 16.5 µM | GI50 (OVCAR-3 ovarian): 2.57 µM | TGI (OVCAR-3 ovarian): 10.3 µM | GI50 (SR leukemia): 3.89 µM | TGI (SR leukemia): 23.4 µM | GI50 (HT29 colon): 2.65 µM | TGI (HT29 colon): 14.1 µM | GI50 (IGROV1 ovarian): 2.52 µM | TGI (IGROV1 ovarian): 30.7 µM | GI50 (UACC-62 melanoma): 0.958 µM | TGI (UACC-62 melanoma): 7.97 µM | GI50 (OVCAR-4 ovarian): 1.97 µM | TGI (OVCAR-4 ovarian): 8.17 µM | GI50 (HCT-116 colon): 2.46 µM | TGI (HCT-116 colon): 12 µM

O=C1c2c(O)cccc2C(C2OC(CO)C(O)C(O)C2O)c2cc(CO)cc(O)c21 (configuration not stated)
TGI (NCI-H226 lung): > 100 µM | TGI (A549 NSCLC): > 100 µM | TGI (MALME-3M melanoma): > 100 µM | GI50 (OVCAR-3 ovarian): 43.9 µM and > 100 µM | TGI (OVCAR-3 ovarian): > 100 µM | GI50 (SR leukemia): > 100 µM | TGI (SR leukemia): > 100 µM | TGI (HT29 colon): > 100 µM | TGI (IGROV1 ovarian): > 100 µM | TGI (UACC-62 melanoma): > 100 µM | TGI (OVCAR-4 ovarian): > 100 µM | TGI (HCT-116 colon): > 100 µM

Cc1ccc(Nc2nc(C)c(C(/C=C/c3ccc(/C=C/C(=N/NC(=O)C[n+]4ccccc4)c4sc(Nc5ccc(C)cc5[N+](=O)[O-])nc4C)cc3)=N\NC(=O)C[n+]3ccccc3)s2)c([N+](=O)[O-])c1
TGI (NCI-H226 lung): 84.5 µM | TGI (A549 NSCLC): > 100 µM | TGI (MALME-3M melanoma): > 100 µM | TGI (OVCAR-3 ovarian): > 100 µM | TGI (SR leukemia): > 100 µM | TGI (HT29 colon): > 100 µM | TGI (IGROV1 ovarian): > 100 µM | TGI (UACC-62 melanoma): 67 µM | TGI (OVCAR-4 ovarian): > 100 µM | TGI (HCT-116 colon): > 100 µM

CCOc1cc2ncc(C#N)c(Nc3ccc(OCc4ccccn4)c(Cl)c3)c2cc1NC(=O)/C=C/CN(C)C
GI50 (NCI-H226 lung): 6.06 µM and 1.69 µM | TGI (NCI-H226 lung): 26.7 µM and > 7.67 µM | GI50 (A549 NSCLC): 0.371 µM and 0.377 µM | TGI (A549 NSCLC): 1.94 µM and > 10 µM | GI50 (MALME-3M melanoma): 0.61 µM | TGI (MALME-3M melanoma): 2.59 µM | GI50 (OVCAR-3 ovarian): 1.05 µM and 0.49 µM | TGI (OVCAR-3 ovarian): 20.2 µM and > 6.8 µM | GI50 (SR leukemia): 0.413 µM | TGI (SR leukemia): > 3.38 µM | GI50 (HT29 colon): 0.491 µM and 0.502 µM | TGI (HT29 colon): 2.05 µM and 2.62 µM | GI50 (IGROV1 ovarian): 0.121 µM and 0.0191 µM | TGI (IGROV1 ovarian): 5.7 µM and 1.84 µM | GI50 (UACC-62 melanoma): 1.28 µM and 0.842 µM | TGI (UACC-62 melanoma): 3.87 µM and > 10 µM | GI50 (OVCAR-4 ovarian): 0.49 µM and 0.48 µM | TGI (OVCAR-4 ovarian): 2.44 µM and > 10 µM | GI50 (HCT-116 colon): 0.568 µM and 0.615 µM | TGI (HCT-116 colon): 2.08 µM and 2.05 µM

C/C=C(\C)C(=O)O[C@H]1C=CC(=O)O[C@@H]1CC[C@H](O)[C@H](C)O
GI50 (NCI-H226 lung): 47.4 µM | TGI (NCI-H226 lung): > 100 µM | GI50 (A549 NSCLC): > 75.1 µM | TGI (A549 NSCLC): > 100 µM | GI50 (MALME-3M melanoma): 29.3 µM | TGI (MALME-3M melanoma): 70.6 µM | GI50 (OVCAR-3 ovarian): 36.5 µM | TGI (OVCAR-3 ovarian): > 100 µM | GI50 (SR leukemia): 4.7 µM | TGI (SR leukemia): 42.8 µM | GI50 (HT29 colon): 30.6 µM | TGI (HT29 colon): 97.5 µM | GI50 (IGROV1 ovarian): 42 µM | TGI (IGROV1 ovarian): > 100 µM | GI50 (UACC-62 melanoma): 38.5 µM | TGI (UACC-62 melanoma): > 73.9 µM | GI50 (OVCAR-4 ovarian): 41.6 µM | TGI (OVCAR-4 ovarian): 97.5 µM | GI50 (HCT-116 colon): 21.4 µM | TGI (HCT-116 colon): 67.2 µM
